Assay results from patent publication US20100215588A1, “THERAPEUTIC DELIVERY OF INHIBITORY NUCLEIC ACID MOLECULES TO THE RESPIRATORY SYSTEM” (priority 2007, published 2010).
“Also recorded” adds a separate entry of the source.

Legend:
[1] = Semi-quantitative distribution of I5NP siRNA in lung (hybridization assay); assay type: in vivo, cynomolgus monkeys
Method: (§1) On Day 15 of the study, two of the available animals (101 and 102) were administered a target dose of 35 mg/kg of a mixture of I5NP and REDD14Cy3.5 (fluorescence-labelled) siRNA via an oronasal mask as a nebulized aerosol generated by the Aeroneb device. A 2.0 L/min dilution airflow was used. The total dose of siRNA administered was calculated, based on the bodyweights and measured respiratory minute volumes of the animals, and on the achieved output of the Aeroneb device using the formulation concentration of 40 mg/mL of siRNA. The administered dose was adjusted by changing the exposure times for the animals
On Day 35 of the Study, the three remaining main study animals (103 to 105) were administered a target dose of 35 mg/kg of I5NP siRNA via an oronasal mask as a nebulized aerosol generated by the Aeroneb device. A 2.0 L/min dilution airflow was used. The total dose administered was calculated, based on the bodyweights and measured respiratory minute volumes of the animals, and on the achieved output of the Aeroneb device using the formulation concentration of 40 mg/mL. The administered dose was adjusted by changing the exposure times for the animals.
At the time of necropsy following Treatment 2, the lungs of animal 101 were removed from the animal. The lungs were separated into individual lobes. The bronchi/bronchioles and immediately surrounding regions of each lobe were dissected out as carefully as was practicable and pooled, per lobe. The remaining tissue areas were pooled, per lobe. Each pooled sample (i.e. bronchi/bronchioles and remaining tissue for each lobe) was stored deep-frozen (−80° C.) for analysis via hybridization assay. Lung samples from animal 101 were tracked using the Watson LIMS system.
At each specified time of necropsy following Treatment 3, the lungs of animals 103, 104 or 105 were removed from the animals. Each set of lungs were separated into individual lobes. The bronchi/bronchioles and immediately surrounding regions of each lobe were dissected out as carefully as was practicable and pooled, per lobe. The remaining tissue areas were pooled, per lobe. […]
All lung samples from animal 101 (i.e. left cranial lobe, bronchioles and remainder; left caudal lobe, bronchioles and remainder; right cranial lobe, bronchioles and remainder; right middle lobe, bronchioles and remainder; right caudal lobe, bronchioles and remainder and right accessory lobe, bronchioles and remainder) were analyzed for I5NP siRNA concentration. For animals 103, 104 and 105, left cranial lobe (bronchioles and remainder) and right caudal lobe (bronchioles and remainder) were analyzed for I5NP siRNA concentration. […] The results obtained for lung samples were considered as semi-quantitative.

[2] = Qualitative distribution of REDD14Cy3.5 siRNA in lung and kidney (fluorescence analysis); assay type: in vivo, cynomolgus monkeys; details: after oronasal inhalation
Method: as §1
At the time of necropsy following Treatment 2, the lungs, bronchi and trachea of animal 102 were removed from the animal. The lungs were perfused with 4% paraformaldehyde, introduced using a syringe, via the trachea and/or bronchus and stored in this fixative at ambient temperature for a period of approximately 21 hours. Following this, as much as possible of the original fixative fluid was withdrawn by syringe via the trachea/bronchus and replaced with 0.2% paraformaldehyde. The fixed lungs were analyzed for fluorescence distribution.
At the time of necropsy following Treatment 2, the right kidney of animal 102 was removed from the animal. The kidney was dissected into quarters by making one longitudinal and one transverse cut, each to pass through the hilus, and then immersed in 4% paraformaldehyde and refrigerated for approximately 21 hours. Following this, the fixing solution was changed to 0.2% paraformaldehyde and the kidney was analyzed for fluorescence distribution.
Following Treatment 2, lung and kidney samples from animal 102 were analyzed for distribution of fluorescence (from REDD14Cy3.5 siRNA). The results were considered to be qualitative.

For “I5NP: exemplary p53 inhibiting siRNA; sense GAGAAUAUUUCACCCUUCA, antisense UGAAGGGUGAAAUAUUCUC (chemistry not given here)”, the “I5NP concentration in bronchioles and peripheral lung tissues” value ([1]; Treatment 2 (I5NP:REDD14Cy3.5 9:1), animal 101, approximately 30 minutes post-end of dosing, all 6 lobes, semi-quantitative) was “found in high concentrations in both bronchioles and in peripheral tissues of all lobes of each lung”, the “I5NP concentration, peripheral tissues versus bronchiolar samples” value ([1]; Treatment 2, animal 101, approximately 30 minutes post-end of dosing) was “generally higher in the peripheral tissues than in the bronchiolar samples” and the “relative concentrations in bronchiolar and peripheral lung tissues over time” value ([1]; Treatment 3, animals 103, 104, 105, 6, 24 and 72 h post-end of dosing, left cranial and right caudal lobes) was “still detectible at 72 hours post-end of dosing”. The “levels in lungs compared with plasma” value ([1]; all time points post-dose) was “at all times greater than those in plasma; also recorded: higher than in plasma” and the “distribution in lung, I5NP (hybridization) and REDD14Cy3.5 (fluorescence) compared” value [2] was “little difference in the distribution of the two test articles in lung”.
